Assays:
[1] = tested on: lambsquarters; assay: Test C pre-/postemergence herbicide test; format: in vivo, Chenopodium album; settings: for Plant response rating (0 = no effect, 100 = complete control), Lambsquarters: 62 g ai/ha; for Plant response rating (0 = no effect, 100 = complete control), Lambsquarters / Plant response rating, Lambsquarters: preemergence; for Plant response rating, Lambsquarters: 125 g ai/ha, scale 0 (no effect) to 100 (complete control), visual, 12 to 14 days; for Lambsquarters plant response rating: Preemergence, 500 g ai/ha, scale 0 to 100, 0 no effect, 100 complete control
Outline: (§1)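 Seeds were planted and sprayed preemergence with test chemicals in a non-phytotoxic solvent mixture containing surfactant; postemergence treatments went onto plants 2 to 18 cm tall (1- to 4-leaf stage). After 12 to 14 days in a greenhouse, injury was rated visually against untreated controls on a 0–100 scale.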

[2] = tested on: bermudagrass; assay: Test C pre-/postemergence herbicide test; format: in vivo, Cynodon dactylon; settings: for Plant response rating (0 = no effect, 100 = complete control), Bermudagrass: 62 g ai/ha; for Plant response rating (0 = no effect, 100 = complete control), Bermudagrass / Plant response rating, Bermudagrass: preemergence; for Plant response rating, Bermudagrass: visual, 12 to 14 days; for Bermudagrass plant response rating: Preemergence, 500 g ai/ha, scale 0 to 100, 0 no effect, 100 complete control
Outline: as §1

[3] = tested on: rice; assay: Test C flooded paddy test; format: in vivo, Oryza sativa; settings: for Plant response rating, Rice: 500 g ai/ha, visual rating after 12 to 14 days
Outline: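 Injury scored visually against controls on a 0 (no effect) to 100 (complete control) scale, 12 to 14 days after treatment in greenhouse. Flooded paddy plants treated at 2-leaf stage; postemergence plants at 1- to 4-leaf stage, 2 to 18 cm tall.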

[4] = tested on: kochia; assay: Test C pre-/postemergence herbicide test; format: in vivo, Kochia scoparia; settings: for Plant response rating (0 = no effect, 100 = complete control), Kochia: 62 g ai/ha; for Plant response rating (0 = no effect, 100 = complete control), Kochia / Plant response rating, Kochia: preemergence; for Plant response rating, Kochia: 125 g ai/ha, scale 0 (no effect) to 100 (complete control), visual, 12 to 14 days; for Kochia plant response rating: Preemergence, 500 g ai/ha, scale 0 to 100, 0 no effect, 100 complete control
Outline: as §1

[5] = tested on: barnyardgrass; assay: Test C flooded paddy test; format: in vivo, Echinochloa crus-galli; settings: for Plant response rating, Barnyardgrass: 500 g ai/ha, visual rating after 12 to 14 days
Outline: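 Postemergence sprays applied to plants 2 to 18 cm tall (1- to 4-leaf stage); paddy species grown to 2-leaf stage under flooding. After 12 to 14 days in greenhouse, visual rating versus untreated controls on 0–100 scale (0 no effect, 100 complete control).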

[6] = tested on: barnyardgrass; assay: Test A pre-/postemergence herbicide test; format: in vivo, Echinochloa crus-galli; settings: for Plant response rating, Barnyardgrass: Postemergence; for Barnyardgrass plant response rating: Preemergence
Outline: (§2)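 Seeds sown in sandy loam received a preemergence directed soil spray of compound in non-phytotoxic solvent with surfactant; postemergence plants (2–10 cm, one- to two-leaf stage) were sprayed to runoff at the same time. After ~10 days in greenhouse, injury was rated visually versus untreated controls (0 = no effect, 100 = complete control).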

[7] = tested on: soybean; assay: Test C pre-/postemergence herbicide test; format: in vivo, Glycine max; settings: for Plant response rating (0 = no effect, 100 = complete control), Soybean: 62 g ai/ha; for Plant response rating (0 = no effect, 100 = complete control), Soybean / Plant response rating, Soybean: preemergence; for Plant response rating, Soybean: 125 g ai/ha, scale 0 (no effect) to 100 (complete control), visual, 12 to 14 days; for Soybean plant response rating: Preemergence, 500 g ai/ha, scale 0 to 100, 0 no effect, 100 complete control
Outline: as §1

[8] = tested on: large crabgrass; assay: Test C pre-/postemergence herbicide test; format: in vivo, Digitaria sanguinalis; settings: for Plant response rating (0 = no effect, 100 = complete control), Crabgrass, Large: 62 g ai/ha; for Plant response rating (0 = no effect, 100 = complete control), Crabgrass, Large / Plant response rating, Crabgrass, Large: preemergence; for Plant response rating, Crabgrass, Large: visual, 12 to 14 days; for Crabgrass, Large plant response rating: Preemergence, 500 g ai/ha, scale 0 to 100, 0 no effect, 100 complete control
Outline: as §1

[9] = tested on: ducksalad; assay: Test C flooded paddy test; format: in vivo, Heteranthera limosa; settings: for Plant response rating, Ducksalad: 500 g ai/ha, visual rating after 12 to 14 days
[10] = tested on: common (oilseed) sunflower; assay: Test C pre-/postemergence herbicide test; format: in vivo, Helianthus annuus; settings: for Plant response rating (0 = no effect, 100 = complete control), Sunflower: 62 g ai/ha; for Plant response rating (0 = no effect, 100 = complete control), Sunflower / Plant response rating, Sunflower: preemergence; for Plant response rating, Sunflower: 125 g ai/ha, scale 0 (no effect) to 100 (complete control), visual, 12 to 14 days; for Sunflower plant response rating: Preemergence, 500 g ai/ha, scale 0 to 100, 0 no effect, 100 complete control
Outline: as §1

[11] = tested on: large crabgrass; assay: Test A pre-/postemergence herbicide test; format: in vivo, Digitaria sanguinalis; settings: for Plant response rating, Crabgrass, Large: Postemergence; for Crabgrass, Large plant response rating: Preemergence
Outline: as §2

[12] = tested on: giant foxtail; assay: Test C pre-/postemergence herbicide test; format: in vivo, Setaria faberi; settings: for Plant response rating (0 = no effect, 100 = complete control), Foxtail, Giant: 62 g ai/ha; for Plant response rating (0 = no effect, 100 = complete control), Foxtail, Giant / Plant response rating, Foxtail, Giant: preemergence; for Plant response rating, Foxtail, Giant: visual, 12 to 14 days; for Foxtail, Giant plant response rating: Preemergence, 500 g ai/ha, scale 0 to 100, 0 no effect, 100 complete control
Outline: as §1

[13] = tested on: giant foxtail; assay: Test A pre-/postemergence herbicide test; format: in vivo, Setaria faberi; settings: for Plant response rating, Foxtail, Giant: Postemergence; for Foxtail, Giant plant response rating: Preemergence
Outline: as §2

[14] = 125 g ai/ha, scale 0 (no effect) to 100 (complete control)
[15] = 250 g ai/ha, scale 0 to 100 (0 no effect, 100 complete control)
[16] = 62 g ai/ha, scale 0 to 100 (0 no effect, 100 complete control)
[17] = 125 g ai/ha, scale of 0 to 100, 0 is no effect, 100 is complete control
[18] = 250 g ai/ha, scale of 0 to 100, 0 is no effect, 100 is complete control
[19] = scale 0 to 100 (0 no effect, 100 complete control)
[20] = 500 g ai/ha, 0 to 100 scale, 0 no effect, 100 complete control
[21] = 2000 g ai/ha, 0 to 100 scale, 0 no effect, 100 complete control
[22] = 500 g ai/ha, visual rating, 0 to 100 scale (0 no effect, 100 complete control)

CCn1nc(C(C)(C)C)cc1C(=O)Nc1cccc2c1CCN(C1CC1)C2=O [Compound 64]
Plant response rating (0 = no effect, 100 = complete control), Lambsquarters [1]: 0 | Plant response rating, Lambsquarters [1]: 0 | Lambsquarters plant response rating [1]: 90 | Plant response rating (0 = no effect, 100 = complete control), Bermudagrass [2]: 0 | Plant response rating, Bermudagrass [2, 14]: 30 | Plant response rating, Bermudagrass [2, 15]: 85 | Bermudagrass plant response rating [2]: 90 | Rice plant response rating [3, 16]: 0 | Rice plant response rating [3, 17]: 0 | Rice plant response rating [3, 18]: 0 | Plant response rating, Rice [3, 19]: 15 | Plant response rating (0 = no effect, 100 = complete control), Kochia [4]: 0 | Plant response rating, Kochia [4]: 20 | Kochia plant response rating [4]: 60 | Barnyardgrass plant response rating [5, 16]: 0 | Barnyardgrass plant response rating [5, 17]: 0 | Barnyardgrass plant response rating [5, 18]: 0 | Plant response rating, Barnyardgrass [5, 19]: 35 | Plant response rating, Barnyardgrass [6, 20]: 30 | Plant response rating, Barnyardgrass [6, 21]: 75 | Barnyardgrass plant response rating [6, 22]: 55 | Barnyardgrass plant response rating [6, 21]: 85 | Plant response rating (0 = no effect, 100 = complete control), Soybean [7]: 0 | Plant response rating, Soybean [7]: 0 | Soybean plant response rating [7]: 60 | Plant response rating (0 = no effect, 100 = complete control), Crabgrass, Large [8]: 0 | Plant response rating, Crabgrass, Large [8, 14]: 40 | Plant response rating, Crabgrass, Large [8, 15]: 70 | Crabgrass, Large plant response rating [8]: 90 | Ducksalad plant response rating [9, 16]: 0 | Ducksalad plant response rating [9, 17]: 10 | Ducksalad plant response rating [9, 18]: 25 | Plant response rating, Ducksalad [9, 19]: 40 | Plant response rating (0 = no effect, 100 = complete control), Sunflower [10]: 0 | Plant response rating, Sunflower [10]: 0 | Sunflower plant response rating [10]: 0 | Plant response rating, Crabgrass, Large [11, 20]: 30 | Plant response rating, Crabgrass, Large [11, 21]: 60 | Crabgrass, Large plant response rating [11, 22]: 70 | Crabgrass, Large plant response rating [11, 21]: 100 | Plant response rating (0 = no effect, 100 = complete control), Foxtail, Giant [12]: 0 | Plant response rating, Foxtail, Giant [12, 14]: 0 | Plant response rating, Foxtail, Giant [12, 15]: 10 | Foxtail, Giant plant response rating [12]: 80 | Plant response rating, Foxtail, Giant [13, 20]: 30 | Plant response rating, Foxtail, Giant [13, 21]: 55 | Foxtail, Giant plant response rating [13, 22]: 40 | Foxtail, Giant plant response rating [13, 21]: 90

CCCN1CCc2c(NC(=O)c3cc(C(C)(C)C)nn3CC)cccc2C1=O [Compound 65]
Plant response rating (0 = no effect, 100 = complete control), Lambsquarters [1]: 20 | Plant response rating, Lambsquarters [1]: 95 | Lambsquarters plant response rating [1]: 100 | Plant response rating (0 = no effect, 100 = complete control), Bermudagrass [2]: 40 | Plant response rating, Bermudagrass [2, 14]: 85 | Plant response rating, Bermudagrass [2, 15]: 95 | Bermudagrass plant response rating [2]: 95 | Rice plant response rating [3, 16]: 0 | Rice plant response rating [3, 17]: 0 | Rice plant response rating [3, 18]: 25 | Plant response rating, Rice [3, 19]: 30 | Plant response rating (0 = no effect, 100 = complete control), Kochia [4]: 10 | Plant response rating, Kochia [4]: 70 | Kochia plant response rating [4]: 90 | Barnyardgrass plant response rating [5, 16]: 0 | Barnyardgrass plant response rating [5, 17]: 0 | Barnyardgrass plant response rating [5, 18]: 30 | Plant response rating, Barnyardgrass [5, 19]: 60 | Plant response rating, Barnyardgrass [6, 20]: 45 | Plant response rating, Barnyardgrass [6, 21]: 75 | Barnyardgrass plant response rating [6, 22]: 55 | Barnyardgrass plant response rating [6, 21]: 70 | Plant response rating (0 = no effect, 100 = complete control), Soybean [7]: 0 | Plant response rating, Soybean [7]: 0 | Soybean plant response rating [7]: 20 | Plant response rating (0 = no effect, 100 = complete control), Crabgrass, Large [8]: 50 | Plant response rating, Crabgrass, Large [8, 14]: 50 | Plant response rating, Crabgrass, Large [8, 15]: 80 | Crabgrass, Large plant response rating [8]: 100 | Ducksalad plant response rating [9, 16]: 15 | Ducksalad plant response rating [9, 17]: 45 | Ducksalad plant response rating [9, 18]: 75 | Plant response rating, Ducksalad [9, 19]: 85 | Plant response rating (0 = no effect, 100 = complete control), Sunflower [10]: 0 | Plant response rating, Sunflower [10]: 0 | Sunflower plant response rating [10]: 0 | Plant response rating, Crabgrass, Large [11, 20]: 30 | Plant response rating, Crabgrass, Large [11, 21]: 60 | Crabgrass, Large plant response rating [11, 22]: 95 | Crabgrass, Large plant response rating [11, 21]: 100 | Plant response rating (0 = no effect, 100 = complete control), Foxtail, Giant [12]: 0 | Plant response rating, Foxtail, Giant [12, 14]: 0 | Plant response rating, Foxtail, Giant [12, 15]: 20 | Foxtail, Giant plant response rating [12]: 60 | Plant response rating, Foxtail, Giant [13, 20]: 30 | Plant response rating, Foxtail, Giant [13, 21]: 55 | Foxtail, Giant plant response rating [13, 22]: 40 | Foxtail, Giant plant response rating [13, 21]: 80
